44 compounds from US9012446B2, “Amino-oxazines and amino-dihydrothiazine compounds as beta-secretase modulators and methods of use” (Amgen Inc., priority 2010, dated 2015) can be followed below.

Structures are written as SMILES.

The subject of one experiment is Aβ40. Description: In vitro BACE cell-based assay (Aβ40 sandwich ELISA, cells stably expressing APP). The note with it: HEK cells. The protocol: In Vitro BACE Cell-Based Assay […] Cells stably expressing Amyloid Precursor Protein (APP) were plated at a density of 40K cells/well in 96 well plates (Costar). The cells were cultivated for 24 hours at 37° C. and 5% CO2 in DMEM supplemented with 10% FBS. The test compounds were then added to cells in 10-point dose response concentrations with the starting concentration being either 100 μM or 10 μM. The compounds were diluted from stock solutions in DMSO and the final DMSO concentration of the test compounds on cells was 0.1%. […] The IC50 of the compound was calculated from the percent of control or percent inhibition of Aβ40 as a function of the concentration of the test compound. The sandwich ELISA to detect Aβ40 was performed in 96 well microtiter plates, which were pre-treated with goat anti-rabbit IgG (Pierce). […] The optimal concentration for the pAb40 antibody was 3 μg/ml in Superblock/TBS (Pierce) that was supplemented with 0.05% Tween 20 (Sigma). […] Cellular supernatants were incubated with the capture antibody for 3 h at 4° C., followed by 3 wash steps in TBS-tween (0.05%). The detecting antibody incubation was for 2 h at 4° C., again followed by the wash steps as described previously. The final readout of the ELISA is Time-Resolved Fluorescence (counts per minute) using Delfia reagents Streptavidin-Europium and Enhancement solutions (Perkin Elmer) and the Victor 2 multilabel counter (Perkin Elmer).

The next experiment has as its target BACE (Homo sapiens, UniProt P56817). Description: In vitro enzymatic BACE FRET assay. The settings on record: average IC50, enzyme assay; read-out: BACE 1 FRET assay. It counts as biochemical. The protocol: In Vitro Enzymatic BACE FRET (Fluorescence Resonance Energy Transfer) Assay (Enzyme Assay Data in the Example Table I) The assay buffer used in this screen is 0.05 M acetate, pH 4.2, 10% DMSO final, 100 uM genapol (which is a nonionic detergent, below its Critical Micelle Concentration). The beta secretase enzyme (0.2 nM) is pre-incubated for one hour with inhibitors, typically in about 1 uL of DMSO according to a serial dilution, are added thereto. This assay is effectively started by the addition of FRET substrate (50 nM) and the combination is incubated for one hour. The FRET assay is terminated with by addition of Tris buffer, which raises the pH to neutrality, and the fluorescence is determined. The FRET substrate is a peptide with commercially available fluorophore and quencher, on opposite sides of the BACE cleavage site. Proteolytic cleavage of the FRET substrate releases quenching of fluorescence (excitation 488 nm and emission […]).

The mark [1] stands for this setting: Homo sapiens, HEK293, average IC50, cell assay.

Chain of BACE (P56817 46-501, species assumed): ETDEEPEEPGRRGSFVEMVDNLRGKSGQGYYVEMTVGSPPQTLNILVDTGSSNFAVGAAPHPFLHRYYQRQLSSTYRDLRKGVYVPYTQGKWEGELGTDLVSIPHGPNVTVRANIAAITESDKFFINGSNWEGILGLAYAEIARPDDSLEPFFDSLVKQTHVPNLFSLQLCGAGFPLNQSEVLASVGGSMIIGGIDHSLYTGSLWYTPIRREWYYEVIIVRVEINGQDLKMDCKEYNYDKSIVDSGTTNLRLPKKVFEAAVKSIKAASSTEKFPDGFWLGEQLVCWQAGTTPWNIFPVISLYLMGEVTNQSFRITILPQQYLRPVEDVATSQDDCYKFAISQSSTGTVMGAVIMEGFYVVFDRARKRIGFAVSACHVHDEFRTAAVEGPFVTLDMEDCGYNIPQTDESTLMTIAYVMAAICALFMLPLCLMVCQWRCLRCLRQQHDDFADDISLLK

`NC1=N[C@]2(COC1)c1cc(-c3cccnc3F)ccc1Oc1cnc(-c3ccnc(F)c3)cc12` [compound 70]: the results for the IC50 in the experiment with Aβ40 (setting [1]) and at BACE were 268 nM and 52.4 nM, respectively.

Consider `NC1=N[C@@]2(COC1)c1cc(-c3cccnc3F)ccc1Oc1cnc(C3=CCOCC3)cc12` [compound 71], for which the IC50 stood at 1.2 nM with Aβ40 (setting [1]) and 0.4 nM on BACE.

`CC#Cc1cncc(-c2ccc3c(c2)[C@@]2(COCC(N)=N2)c2cc(-c4ccnc(F)c4)ncc2O3)c1` [compound 75]: the IC50 in the experiment with Aβ40 (setting [1]) is 2.8 nM; on BACE, 0.5 nM.

For the compound `NC1=N[C@@]2(COC1)c1cc(-c3cncnc3)ccc1Oc1cnc(-c3ccnc(F)c3)cc12` [compound 78], the IC50 with Aβ40 (setting [1]) amounted to 1.1 nM; on BACE, 0.5 nM.

With `NC1=N[C@@]2(COC1)c1cc(-c3cncnc3)ccc1Oc1cnc(-c3ccc(F)c(F)c3)cc12` [compound 79], the IC50 in the experiment with Aβ40 (setting [1]) amounted to 0.8 nM; on BACE, 0.3 nM.

For `NC1=N[C@@]2(COC1)c1cc(-c3cccnc3F)ccc1Oc1cnc([C@H]3CCCOC3)cc12` [compound 80], the figures for the IC50 with Aβ40 (setting [1]) and at BACE were 5.8 nM and 3.9 nM, respectively.

On to `NC1=N[C@@]2(COC1)c1cc(-c3cccnc3F)ccc1Oc1cnc([C@@H]3CCCOC3)cc12` [compound 81], for which the IC50 came to 4.1 nM in the experiment on Aβ40 (setting [1]) and 3.7 nM at BACE.

Turning to `CC1(COc2cc(F)c3c(c2)[C@@]2(COCC(N)=N2)c2cc(-c4cccnc4F)ccc2O3)COC1` [compound 82], the results for the IC50 in the experiment with Aβ40 (setting [1]) and at BACE were 121 nM and 43 nM, respectively.

For the compound `CC1(COc2cc(F)c3c(c2)[C@]2(COCC(N)=N2)c2cc(-c4cccnc4F)ccc2O3)COC1` [compound 83], the IC50 with Aβ40 (setting [1]) and at BACE was 0.4 nM in each case.

On to `NC1=N[C@@]2(COC1)c1cc(-c3cccnc3F)ccc1Oc1c(F)cc(N3CC[C@@H](F)C3)cc12` [compound 85], for which the IC50 with Aβ40 (setting [1]) was determined as 101 nM; on BACE it was 39.7 nM.

On to `CC1(C#Cc2cnc3c(c2)[C@]2(COCC(N)=N2)c2cc(-c4cccnc4F)ccc2O3)COC1` [compound 87], for which the IC50 was found to be 1.3 nM in the experiment with Aβ40 (setting [1]) and 2 nM on BACE.

Regarding `CC1(C#Cc2cnc3c(c2)[C@@]2(COCC(N)=N2)c2cc(-c4cccnc4F)ccc2O3)COC1` [compound 88], the values for the IC50 in the experiment on Aβ40 (setting [1]) and on BACE were 198 nM and 332 nM, respectively.

On to `NC1=N[C@@]2(COC1)c1cc(-c3cc(Cl)ccc3F)ccc1Oc1ncc(N3CC[C@@H](F)C3)cc12` [compound 92], for which the IC50 with Aβ40 (setting [1]) is 1.9 nM; on BACE, 0.6 nM.

Consider `NC1=N[C@@]2(COC1)c1cc(-c3cc(Cl)ccc3F)ccc1Oc1ncc(N3CCOCC3)cc12` [compound 93], for which the IC50 worked out at 3.9 nM in the experiment on Aβ40 (setting [1]) and 0.7 nM at BACE.

With `NC1=N[C@@]2(COC1)c1cc(-c3cc(Cl)ccc3F)ccc1Oc1ncc(N3CC4CCC(C3)O4)cc12` [compound 94], the IC50 in the experiment on Aβ40 (setting [1]) and at BACE was 1.3 nM in each case.

For `CC1(C#Cc2cnc3c(c2)[C@]2(COCC(N)=N2)c2cc(-c4cc(Cl)ccc4F)ccc2O3)COC1` [compound 95], the values for the IC50 with Aβ40 (setting [1]) and at BACE were 1.2 nM and 0.5 nM, respectively.

In the case of `CC(C)(C)C#Cc1cnc2c(c1)[C@]1(COCC(N)=N1)c1cc(-c3cncnc3)c(F)cc1O2` [compound 96], the values for the IC50 in the experiment on Aβ40 (setting [1]) and at BACE were 0.6 nM and 1.2 nM, respectively.

For `CC(C)(C)C#Cc1cnc2c(c1)[C@@]1(COCC(N)=N1)c1cc(-c3cncnc3)c(F)cc1O2` [compound 97], the IC50 in the experiment on Aβ40 (setting [1]) was 273 nM; on BACE, 419 nM.

As to `NC1=NC2(CCS1)c1cc(-c3cncnc3)ccc1Oc1ccc(-c3cncnc3)cc12` [compound 98], the IC50 in the experiment with Aβ40 (setting [1]) stood at 635 nM; on BACE, 257 nM.

In the case of `NC1=NC2(CCS1)c1cc(-c3cccnc3)ccc1Oc1ccc(-c3cccnc3)cc12` [compound 99], the IC50 amounted to 118 nM in the experiment on Aβ40 (setting [1]) and 81.8 nM at BACE.

For `NC1=N[C@]2(CCO1)c1cc(-c3cccnc3F)ccc1Oc1cnc(-c3cccnc3F)cc12` [compound 100], the IC50 with Aβ40 (average IC50, cell assay) worked out at 184 nM; at BACE it was 49.6 nM.

Consider `NC1=NC2(CCO1)c1cc(-c3cccnc3F)ccc1Oc1c2cc(-c2cccnc2F)nc1F` (stereo not shown) [compound 101], for which the IC50 was 45.9 nM in the experiment on Aβ40 (setting [1]) and 14.6 nM on BACE.

Take `NC1=N[C@]2(CCO1)c1cc(-c3cccnc3F)ccc1Oc1c2cc(-c2cccnc2F)nc1F` [compound 104]: the IC50 with Aβ40 (setting [1]) came to 1900 nM; at BACE, 1740 nM.

Turning to `NC1=N[C@@]2(CCO1)c1cc(-c3cccnc3F)ccc1Oc1c2cc(-c2cccnc2F)nc1F` [compound 105], the IC50 in the experiment with Aβ40 (setting [1]) worked out at 24.2 nM; at BACE, 20.6 nM.

On to `NC1=N[C@]2(CCO1)c1cc(-c3cccnc3F)ccc1Oc1c2cc(-c2ccnc(F)c2)nc1F` [compound 106], for which the IC50 worked out at 2640 nM in the experiment with Aβ40 (setting [1]) and 1740 nM at BACE.

As to `NC1=N[C@@]2(CCO1)c1cc(-c3cccnc3F)ccc1Oc1c2cc(C2=CCOCC2)nc1F` [compound 108], the IC50 in the experiment on Aβ40 (setting [1]) and at BACE was 0.6 nM each time.

Regarding `NC1=N[C@]2(CCO1)c1cc(-c3cccnc3F)ccc1Oc1cnc(C3=CCOCC3)cc12` [compound 109], the values for the IC50 with Aβ40 (setting [1]) and at BACE were 579 nM and 2820 nM, respectively.

On to `NC1=N[C@@]2(COC1)c1cc(-c3cncc(F)c3)ccc1Oc1cnc(-c3cncc(F)c3)cc12` [compound 112], for which the figures for the IC50 with Aβ40 (setting [1]) and on BACE were 1.5 nM and 0.5 nM, respectively.

Regarding `NC1=N[C@@]2(COC1)c1cc(-c3cncc(F)c3)ccc1Oc1cnc(-c3ccnc(F)c3)cc12` [compound 113], the IC50 in the experiment on Aβ40 (setting [1]) worked out at 1 nM; at BACE, 0.5 nM.

For `NC1=N[C@@]2(COC1)c1cc(-c3cccnc3)ccc1Oc1cnc(-c3ccnc(F)c3)cc12` [compound 116], the IC50 turned out to be 0.8 nM in the experiment on Aβ40 (setting [1]) and 0.6 nM on BACE.

`NC1=N[C@@]2(COC1)c1cc(-c3cnccc3F)ccc1Oc1cnc(-c3ccc(F)c(F)c3)cc12` [compound 117]: the IC50 in the experiment on Aβ40 (setting [1]) was determined as 1.6 nM; at BACE, 0.3 nM.

As to `NC1=N[C@@]2(COC1)c1cc(-c3cnccc3F)ccc1Oc1cnc(-c3ccnc(F)c3)cc12` [compound 118], the IC50 in the experiment with Aβ40 (setting [1]) is 0.6 nM; on BACE it was 0.4 nM.

For `NC1=N[C@@]2(COC1)c1cc(-c3cncc(F)c3)ccc1Oc1cnc(C3=CCCOC3)cc12` [compound 121], the values for the IC50 in the experiment on Aβ40 (setting [1]) and at BACE were 0.2 nM and 0.5 nM, respectively.

`COc1cc2c(cn1)Oc1ccc(-c3cccnc3F)cc1[C@@]21COCC(N)=N1` [compound 123]: the IC50 is 3.3 nM with Aβ40 (setting [1]) and 2.2 nM at BACE.

With `COc1cc2c(cn1)Oc1ccc(-c3cccnc3)cc1[C@@]21COCC(N)=N1` [compound 124], the IC50 in the experiment on Aβ40 (setting [1]) is 5.1 nM; at BACE, 6.8 nM.

With `COc1cc2c(cn1)Oc1ccc(-c3cc(F)ccc3Cl)cc1[C@@]21COCC(N)=N1` [compound 125], the IC50 is 12.4 nM with Aβ40 (setting [1]) and 2.2 nM on BACE.

As for `CC(C)(C#N)COc1cc2c(cn1)Oc1ccc(-c3cc(Cl)ccc3F)cc1[C@@]21COCC(N)=N1` [compound 127], the figures for the IC50 in the experiment with Aβ40 (setting [1]) and on BACE were 1.4 nM and 0.3 nM, respectively.

As to `NC1=N[C@@]2(COC1)c1cc(Br)ccc1Oc1c2cc(N2CCC(F)(F)CC2)nc1F` [compound 128], the IC50 was found to be 109 nM in the experiment with Aβ40 (setting [1]) and 17.3 nM on BACE.

On to `NC1=N[C@]2(COC1)c1cc(C3=CCCOC3)ccc1Oc1ccc(-c3cccnc3F)cc12` [compound 130], for which the IC50 came to 12.2 nM in the experiment on Aβ40 (setting [1]) and 0.7 nM at BACE.

For `CC#Cc1cncc(-c2ccc3c(c2)[C@@]2(COCC(N)=N2)c2cc(C4=CCOCC4)cc(F)c2O3)c1` [compound 131], the IC50 in the experiment with Aβ40 (setting [1]) came out at 2.5 nM; at BACE, 0.7 nM.

For `NC1=N[C@@]2(COC1)c1cc(-c3cncnc3)ccc1Oc1c(F)cc(C3=CCCOC3)cc12` [compound 133], the IC50 in the experiment with Aβ40 (setting [1]) came out at 0.4 nM; at BACE it was 0.3 nM.

Turning to `CC(C)(C)COc1ccc2c(c1)[C@]1(COCC(N)=N1)c1cc(Br)ccc1O2` [compound 135, (3R)-2′-bromo-7′-(2,2-dimethylpropoxy)-6H-spiro[1,4-oxazine-3,9′-xanthen]-5-amine], the IC50 with Aβ40 (setting [1]) turned out to be 587 nM; at BACE it was 102 nM.

Take `COc1ccc2c(c1)C1(CCSC(N)=N1)c1cc(-c3cncnc3)ccc1O2` (stereo not shown) [compound 137]: the IC50 in the experiment on Aβ40 (setting [1]) came out at 1140 nM; on BACE, 1130 nM.

On to `CC(C)(C)C#Cc1cc2c(cn1)Oc1ccc(-c3cncc(F)c3)cc1[C@@]21CCOC(N)=N1` [compound 139], for which the results for the IC50 in the experiment on Aβ40 (setting [1]) and at BACE were 6.9 nM and 12.8 nM, respectively.
